Assay results reported in patent US9796671B2, “Aurora kinase inhibitors” (REGENTS OF THE UNIVERSITY OF MINNESOTA, priority 2012, dated 2017).

Tested on: HCT116 cells
Assay: Anchorage-independent growth (soft agar colony formation)
Type: cell-based
Conditions: 0.5 μM
Description: FIGS. 3A and 3B. Compounds 1-8 suppress the anchorage-independent growth of HCT116 cells. The asterisk indicates a significant (* p<0.05, ** p<0.01) decrease in colony formation in cells treated with each compound compared with the DMSO treated control group. Two concentrations of each compound, 0.5 μM and 5 μM were tested. […] Compounds 2 and 4 had no effect.
Tumor cells are suspended in basal medium Eagle (BME) medium and added to 0.6% agar, with different concentrations of Compound 1 in a base layer and a top layer of 0.3% agar. The cultures are maintained at 37° C. in a 5% CO2 incubator for 1 to 2 weeks and then colonies are counted under a microscope using the Image-Pro Plus software (v.4) program (Media Cybernetics, Silver Spring, Md.).

Structure (SMILES) | anchorage-independent growth of HCT116 cells (colony formation)
O=C(/C=C/c1ccc2c(c1)OCO2)/C=C1/C(=O)Nc2ccc(Cl)cc21 [Compound 2] | no effect
O=C(/C=C/c1ccc2c(c1)OCO2)/C=C1/C(=O)Nc2cccc(Cl)c21 [Compound 4] | no effect
COc1cc(/C=C/C(=O)/C=C2/C(=O)Nc3ccccc32)cc(OC)c1OC [Compound 5] | best efficiency
O=C(/C=C/c1ccc2c(c1)OCO2)/C=C1/C(=O)Nc2ccc(F)cc21 [Compound 6] | best efficiency
COc1cc(/C=C/C(=O)/C=C2/C(=O)Nc3ccccc32)ccc1O [Compound 8] | best efficiency
